Earlier results in patent US20080014271A1, “NOVEL PHARMACEUTICAL COMPOSITIONS COMPRISING LEVETIRACETAM” (UCB, S.A., priority 2006, published 2008).

System: epilepsy

CC[C@H](C(N)=O)N1CCCC1=O [(R)-(+)-alpha-ethyl-2-oxo-1-pyrrolidine acetamide]
Activity in the treatment of epilepsy: completely lacks activity
